From PubChem BioAssay AID1249 (Columbia University Molecular Screening Center, 2008)
The source made the active and inactive calls. How the calls were made is not given here.

assay: cellular cytoskeleton assembly phenotype modulators – imaging, high-content imaging, retest and dose response, confirmation (AID 1249); conditions: cell-based imaging, cytoskeleton assembly phenotype, high content; at 2 µM; stronger effect = higher value;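 further: compound exposure lasted 24 h before fixation; plate controls were untreated cells for no effect and reference compound treated cells for full effect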

SMILES	inhibition
CC(=O)c1cccc(NS(=O)(=O)c2c(C)noc2C)c1	-13.9% (inactive)
Nc1ccc2nc(-c3ccc(N)c(Cl)c3)[nH]c2c1	11.4% (inactive)
O=C(NC(Nc1nc2ccc([N+](=O)[O-])cc2s1)(C(F)(F)F)C(F)(F)F)c1ccccc1	-15.3% (inactive)
CCOc1cc(S(=O)(=O)Nc2ccccc2CC)ccc1Cl	-1.7% (inactive)
COC(=O)COc1ccc(=O)n(-c2ccccc2)n1	-8.8% (inactive)
COC(=O)Sc1nc(N2CCOCC2)c2c(c1C#N)CC(C)(C)OC2	4.8% (inactive)
NC(=O)c1c(NC(=O)Cc2cccs2)sc2c1CCC2	6.6% (inactive)
CCOC(=O)C1CCN(Cc2ccccc2C)CC1	5.4% (inactive)
O=C(Cn1ncc2c(=O)oc3ccccc3c21)NCCC1=CCCCC1	-3.1% (inactive)
Oc1ccc(Nc2nc3ccccc3nc2Nc2ccc(O)cc2)cc1	-1.9% (inactive)
CSCCC(NC(=O)OCc1ccccc1)C(=O)O (centres undefined)	-2% (inactive)
COc1cc(CC(=O)Nc2ncc(C)s2)cc(OC)c1OC	-7.4% (inactive)
Cc1ccc2nc(CCc3nc4ccc(C)cc4o3)oc2c1	5.4% (inactive)
Cc1nn(CC(=O)Nc2ccc(C(=O)N(C)C)cc2)c(=O)c2ccccc12	4.3% (inactive)
O=C(Nc1ccccc1)c1nnsc1S(=O)(=O)c1ccc(Cl)cc1	5.3% (inactive)
CCOc1ccccc1/C=N/Nc1ccccc1[N+](=O)[O-]	-0.7% (inactive)
COc1ccc(C2=Nn3c(nnc3-c3ccccc3OC)SC2)cc1OC	0.9% (inactive)
O=S(=O)(c1ccc2c(c1)OCCCO2)N1CCNCC1	0.7% (inactive)
Cn1cc(-c2nnnn2-c2ccc(Cl)cc2)c(=O)c2ccccc21	-6.6% (inactive)
CCOC(=O)/C(=C\c1cccnc1)C(=O)c1cc(C(C)=O)c(Nc2ccccc2)s1	5.1% (inactive)
Cc1oc2cc3c(C(=O)N4CCCCC4)c(C)oc3cc2c1C(=O)N1CCCCC1	-4.7% (inactive)
CNc1c([N+](=O)[O-])cnn1-c1ccc(Cl)cc1	-10.2% (inactive)
O=C(c1ccc2snnc2c1)N1CCSCC1	-15.8% (inactive)
O=C(/C(=C/c1ccc(Cl)cc1)c1nc2ccccc2[nH]1)c1cccs1	-2.9% (inactive)
CCOC(=O)c1cnn(-c2nc(CC)nc3sc4c(c23)CCC4)c1N	-4.7% (inactive)

SMILES	inhibition
Cc1ccc(OCC(=O)N2CCN(C(=O)Cc3ccccc3)CC2)cc1	-4.3% (inactive)
CC1CC(=O)NN=C1c1ccc(NCCO)c([N+](=O)[O-])c1 (centres undefined)	-4.6% (inactive)
Cc1cccc(NC(=O)CC2SC(=O)N(c3ccccc3)C2=O)c1 (centres undefined)	1.5% (inactive)
Cc1cccc(OCC(=O)Nc2cc(C)ccc2O)c1	-8.8% (inactive)
CC(=O)N1CN2CN(C(C)=O)CC(C(=O)c3ccccc3)(C2)C1	-10.6% (inactive)
CCCn1c(=O)c2ccccc2n2c(SCC(=O)NCc3cccs3)nnc12	-5.9% (inactive)
C=CCN1C(=O)/C(=C2/Sc3ccccc3N2CCCS(=O)(=O)O)SC1=S	0.3% (inactive)
C/C(=N\O)c1ccc2c3ccccc3n(C)c2c1	-20.9% (inactive)
Cc1ccc(OCC(O)CN2CCN(CC(O)COc3ccc(C)cc3)CC2)cc1 (centres undefined)	10.9% (inactive)
CCOC(=O)Cn1c(SC)nc2sc3c(c2c1=O)CC(C)(C)OC3	-24.8% (inactive)
COc1ccc(-c2cc(C(=O)Nc3cc(C)n(Cc4ccc(Cl)cc4)n3)no2)cc1OC	6.8% (inactive)
CN=C(Nc1cc(C)nn1CCC#N)c1ccccc1F	-24.5% (inactive)
Cc1ccc(OCC(O)CNS(=O)(=O)c2ccccc2C(=O)N2CCCCC2)cc1 (centres undefined)	-15.6% (inactive)
COC1(c2ccccc2)NC(=S)NN=C1c1ccccc1 (centres undefined)	-7.4% (inactive)
COc1cc2c3c(c1OC)-c1cc(O)ccc1CC3NCC2 (centres undefined)	-1.7% (inactive)
O=C(CN1CCCCCC1=O)OCc1ncc(-c2ccccc2)o1	-11.1% (inactive)
CN1Cc2cc(C(=O)c3cc(Cl)cc(CSc4ncccn4)c3O)cnc2NC1=O	10.6% (inactive)
O=C(N/N=C/C=C/c1ccccc1)c1n[nH]c2c1CCC2	2% (inactive)
CCC(=O)Nc1cccc(NC(=O)c2cc3ccccc3o2)c1	-5.6% (inactive)
CSc1nc2sc(-c3ccccc3)cc2c(=O)n1N	-0.9% (inactive)
CCOC(=O)N1CCC(NC(=O)c2ccc(CS(=O)(=O)c3ccc(OC)cc3)o2)CC1	-7.4% (inactive)
COc1ccc(S(=O)(=O)NC(CC(=O)NCc2ccco2)C(C)C)cc1 (centres undefined)	-5.2% (inactive)
CCOc1ccc(-n2c(SCC(=O)Nc3ccc(OC)cc3)nc3c(c2=O)SCC3)cc1	7.9% (inactive)
CC1=C([N+](=O)[O-])C(c2ccccc2)C2=C(N1)c1ccccc1C2=O (centres undefined)	8.7% (inactive)
O=C(O)C1CC=CCC1C(=O)N1CCCC1 (centres undefined)	5.5% (inactive)

SMILES	inhibition
CC(C)c1nnc(NC(=O)CCC(=O)N2CCN(C3CCCCC3)CC2)s1	3.6% (inactive)
CCOc1cc(-c2conc2N)cc(OCC)c1OCC	10.2% (inactive)
COc1ccccc1C(=O)Nc1ccc2c(c1)nc(CN1CCN(C(C)=O)CC1)n2C	5.7% (inactive)
CC1(C)Cc2c(oc3ncn4ncnc4c23)CO1	2.7% (inactive)
Cc1csc(NC(=O)CSc2nnc(-c3cccs3)n2C)n1	-10.1% (inactive)
NC(=S)N/N=C\c1ccc(-c2cccc(Cl)c2Cl)o1	-8.9% (inactive)
O=C1N2CCSC2=NC1(Nc1ccccn1)C(F)(F)F (centres undefined)	-0.2% (inactive)
Cc1nn(-c2cc(C)c3ccccc3n2)c2c1C1C(C2)C1(C)C (centres undefined)	3.3% (inactive)
CC(CCc1ccccc1)NC(=O)c1ccc(Br)o1 (centres undefined)	-0.1% (inactive)
Cc1nc(S(=O)(=O)N(C)Cc2ccccc2)c(C#N)c(C)c1Cl	-5.1% (inactive)
CCOC(=O)c1ccc(N2C(=O)CC(N3CCC(O)(c4ccc(Br)cc4)CC3)C2=O)cc1 (centres undefined)	5.5% (inactive)
CCCCn1cnc2c1c(=O)[nH]c(=O)n2CCCC	-11.3% (inactive)
Cc1cnc(NC(=O)C2CCCC2)s1	-5.2% (inactive)
C=CCc1ccccc1OCC(O)CNC (centres undefined)	2.3% (inactive)
Cc1cc(NC(=O)CSc2nc(-c3cccs3)cc(C(F)(F)F)n2)no1	-6.4% (inactive)
CCN(Cc1cc2cc(C)ccc2[nH]c1=O)C(=O)c1cccc(OC)c1	2.3% (inactive)
C/C=C/COC(=O)c1[nH]c2c(c1C)C(=O)CC(c1ccco1)C2 (centres undefined)	-1.7% (inactive)
COC(=O)CSc1nc2nc(C)c(Br)cc2[nH]1	1.5% (inactive)
Cc1cc(C)cc(-n2nnnc2SCC(=O)Nc2nc(-c3ccc(Cl)cc3)cs2)c1	-9.2% (inactive)
CC(=O)c1cccc(Nc2nc(-c3cccc([N+](=O)[O-])c3)cs2)c1	-7.7% (inactive)
Cc1ccc(OCc2ccoc2C(=O)O)cc1C	-8.8% (inactive)
CCCc1[nH]nc2c1C(c1cccnc1)C(C#N)=C(N)O2 (centres undefined)	-4.7% (inactive)
O=C(Nc1cccnc1)c1coc(=O)c2ccccc12	8% (inactive)
CCCn1c(SCC(=O)NCc2ccco2)nnc1C(C)C	-5.7% (inactive)
